According to ChEMBL document CHEMBL5532728, “Novel Tyrosine Kinase 2 Inhibitors for Treating Autoimmune and Inflammatory Diseases” (ACS Med Chem Lett, 2024):

Target: Non-receptor tyrosine-protein kinase TYK2 (Homo sapiens, UniProt P29597)
Assay: Inhibition of 10-His tagged recombinant TYK2 JH2 domain (575 to 876 residues) (unknown origin) incubated for 60 mins by TR-FRET assay

Sequence of Non-receptor tyrosine-protein kinase TYK2 (P29597 whole entry, the tested form may be a part): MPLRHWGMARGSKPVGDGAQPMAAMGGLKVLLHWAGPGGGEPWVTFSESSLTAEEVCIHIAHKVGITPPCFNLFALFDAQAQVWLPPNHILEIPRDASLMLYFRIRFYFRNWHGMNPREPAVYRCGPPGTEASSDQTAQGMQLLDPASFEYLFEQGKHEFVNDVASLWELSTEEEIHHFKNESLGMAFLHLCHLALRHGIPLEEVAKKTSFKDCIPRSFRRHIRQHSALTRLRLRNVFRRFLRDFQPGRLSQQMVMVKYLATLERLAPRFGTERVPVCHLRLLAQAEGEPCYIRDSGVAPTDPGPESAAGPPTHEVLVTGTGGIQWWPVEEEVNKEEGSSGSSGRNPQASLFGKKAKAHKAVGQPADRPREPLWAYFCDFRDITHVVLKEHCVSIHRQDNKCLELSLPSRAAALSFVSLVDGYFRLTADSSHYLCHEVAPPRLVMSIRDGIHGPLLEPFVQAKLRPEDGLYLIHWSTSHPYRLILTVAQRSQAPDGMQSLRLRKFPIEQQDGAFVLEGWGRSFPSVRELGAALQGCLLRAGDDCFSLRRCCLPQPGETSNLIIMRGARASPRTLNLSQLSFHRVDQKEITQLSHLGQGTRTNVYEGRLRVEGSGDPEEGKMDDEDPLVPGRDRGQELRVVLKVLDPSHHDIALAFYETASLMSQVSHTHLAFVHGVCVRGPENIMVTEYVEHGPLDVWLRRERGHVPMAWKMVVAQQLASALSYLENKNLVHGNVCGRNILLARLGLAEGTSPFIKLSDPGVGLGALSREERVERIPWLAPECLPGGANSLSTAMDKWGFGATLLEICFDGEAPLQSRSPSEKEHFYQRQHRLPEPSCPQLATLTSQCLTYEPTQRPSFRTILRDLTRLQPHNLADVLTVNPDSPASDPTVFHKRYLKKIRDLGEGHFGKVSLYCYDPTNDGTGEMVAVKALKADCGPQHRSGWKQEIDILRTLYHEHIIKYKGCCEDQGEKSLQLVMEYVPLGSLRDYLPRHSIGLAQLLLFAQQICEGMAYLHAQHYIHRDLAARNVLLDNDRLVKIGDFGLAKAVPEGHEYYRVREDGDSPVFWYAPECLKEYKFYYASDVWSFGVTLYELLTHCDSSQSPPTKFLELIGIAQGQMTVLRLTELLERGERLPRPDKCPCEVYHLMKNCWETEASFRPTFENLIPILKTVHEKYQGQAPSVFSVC

IC50 [nM] | Compound
≤ 10 | CC(=O)Nc1cc2c(cn1)C1(CC1)CN2c1cc(C)nc(C2CCC2)n1
≤ 10 | CSc1nc(C)cc(N2CC3(CC3)c3cnc(NC(C)=O)cc32)n1
≤ 10 | CC(=O)Nc1cc2c(cn1)C1(CC1)CN2c1nc(C2CCOC2)c(C)s1 (stereo unspecified)
≤ 10 | CC(=O)Nc1cc2c(cn1)C1(CC1)CN2c1cc(-c2ncn(C)n2)nc(C(C)(F)F)n1
≤ 10 | CC(=O)Nc1cc2c(cn1)C1(CC1)CN2c1cc(NC2CCSC2)nc(C(C)(F)F)n1 (stereo unspecified)
≤ 10 | CC(=O)Nc1cc2c(cn1)C1(CC1)CN2c1cccc(S(C)(=O)=O)n1
